The values below are quoted from earlier work in article PMC7494335 (Science Advances, 2020).

The subject of this data set is humans. The note with it: in vivo.

Molecules are shown by their SMILES.

Turning to `NCCc1c[nH]cn1` [histamine], the “pain if injected alone / addition to Dendrocnide extract” value is listed as “neither changed the nature of the pain caused by Dendrocnide extract nor caused substantial long-lasting pain if injected alone”.
